Experiments:
ROS production [1] = assay: ROS production in vitro under direct LED illumination of other photosensitizers; settings: compared with Ce6
Source text: The system can be adapted for use with other photosensitizers.

ROS production [2] = assay: ROS production in Ce6 solution around device implanted in adult pig model; settings: 5 μM Ce6 solution; device 5.1 cm deep on liver surface, wirelessly powered through tissue; vs control solution with no Ce6
Procedure: To illustrate that the implantable illumination devices could be powered through thick tissue at depths relevant to human scales, ROS production studies were conducted in an adult pig model.
FIGS. 16a to 16c show computed tomography (CT) reconstructions of the radio-frequency transmitter and device implanted an adult pig model.
The control (No Ce6) was a control solution with no Ce6 and the test solution was a solution containing 5 μM Ce6.

MB49 cells [3] = assay: Cell viability (MTS assay) of Ce6-incubated MB49 cells after irradiation; type: cell-based, murine; settings: for cell kill (MTS assay): 20 min irradiation, 1.3 mW
Procedure: (§1) Using Ce6-incubated murine bladder cancer cells, ROS production was further validated against red laser irradiation, the current clinical standard, in two configurations: (i) cells directly exposed to the radio-frequency/laser source, and (ii) cells placed under thick (3 cm) porcine tissue, simulating light delivery to deep tissue regions.
(§2) FIGS. 18a to 18d illustrate test configurations for investigating ROS production. FIG. 18a illustrates a test configuration in which laser light is directly incident on the MB49 cells and FIG. 18 illustrates a test configuration in which the laser light travels through 3 cm of tissue. The laser illumination was carried out with the following intensity 37.5 mW/cm^2, 4 J/cm^2. FIG. 18c illustrates a test configuration in which a wirelessly powered implantable device is powered without intervening tissue. For this configuration near-field (NF) wireless powering was used. FIG. 18d illustrates a test configuration in which a wirelessly powered implantable device is powered without though 3 cm of tissue. For this configuration mid-field (MF) wireless powering was used.
Change in cell viability (MTS assay) following 20 min of irradiation in the above light delivery configurations is shown. The light dosing rate was 1.3 mW throughout. Groups include untreated cells, cells exposed to Ce6 alone, cells exposed to light alone and cells incubated with Ce6 and exposed to light from a laser or the device with or without intervening tissue section.

MB49 cells [4] = assay: Apoptosis index (TUNEL assay) in MB49 cells; type: cell-based, murine
Procedure: as §2
Cell death could be attributed to apoptosis, a widely accepted mechanism for PDT-mediated cytotoxicity. Apoptosis index (TUNEL assay) including positive and negative controls from the assay are shown.

MB49 cells [5] = assay: Cellular ROS production (Image-iT live Green ROS sensor fluorescence); type: cell-based, murine
Procedure: as §1, §2
FIGS. 21a to 21g show florescence images of treated cells and control cells. FIGS. 21a and 21b show cells treated following incubation with Ce6 and illuminated with respectively, the direct laser configuration and, the though tissue laser configuration. FIGS. 21c and 21d show cells treated following incubation with Ce6 and illuminated with respectively, the near field (direct) wireless configuration and, the though tissue (mid field) wireless configuration. FIGS. 21e to 21g show control scenarios. […] The results were obtained from a fluorogenic, cell-permeable ROS sensor (Image-iT live Green ROS).
In all cases, significant cell death resulted from oxidative stress.

[6] = test system: solid tumor from MB49 bladder cancer cells; assay: Cancer PDT in C57 BL/6 mice bearing MB49 tumors, wireless light delivery; type: in vivo
Procedure: Treatments were administered on Day 3 (T1) and Day 9 (T2) with a light dose of 1.3 mW over 30 min. Graphs show mean±s.d. (n=5 per group). The light dose was set to the same level (1.3 mW, 30 min) as used in the in vitro experiments. Devices were implanted in the interstitial space around a solid tumor grown to 4-6 mm diameter from MB49 bladder cancer cells subcutaneously injected into the hind region. After a recovery period, PDT was performed by intratumoral injection of Ce6 followed 4 hours later by wireless delivery of the light dose. […] Control groups were left untreated; received Ce6 injections only, received sham devices only, or given light doses using functional devices without Ce6 injection. […] Monitoring of tumor volume ended 13 days after first treatment, beyond which tumors in the majority of the mice from control groups either reached ethical size limits or were ulcerated. […] Tumor volumes cleared by PDT at the prescribed light dose are consistent with light transport calculations and measurements.

[7] = test system: solid tumor from MB49 bladder cancer cells; assay: Histology after a single round of PDT, wireless device versus direct laser illumination; type: in vivo, mice
Procedure: We compared the therapy to PDT by direct laser illumination, the current clinical standard, by histological examination of the tissue following a single round of treatment. […] The white lines labelled “T.B.” indicates a tissue boundary. Tumor-bearing mice were injected intratumorally with Ce6 and administered either the prior light dose using the wireless device or using a red laser (660 nm) collimated to a 5-mm diameter spot.

ROS production [8] = assay: ROS production by Ce6 illuminated with wireless LED mesh device (405 nm or 660 nm); settings: UV/violet (405 nm) light versus red (660 nm) light
Source text: Depending on the absorption spectrum of the photosensitizer used and the size of the tumor, the devices can be customized to emit a suitable light wavelength. The photosensitizer Ce6 (chlorin e6) has a strong absorption peak at 405 nm and a weaker one at 660 nm.
FIG. 33A is a graph showing production of reactive oxygen species (ROS) by Ce6 when illuminated using a wireless illumination device emitting red (660 nm) light. FIG. 33B is a graph showing production of reactive oxygen species (ROS) by Ce6 when illuminated using a wireless illumination device emitting UV/violet (405 nm) light.

C6 rat glioma cells = assay: Cell kill in C6 rat glioma by UV light triggered PDT; type: cell-based; settings: Ce6 PDT triggered by UV/violet light emitting devices, in vitro
[9] = intratumoral Ce6 + red laser (660 nm), 5-mm spot
[10] = intratumoral Ce6 + wireless device light dose

[Zn+2].c1ccc2c(c1)-c1nc-2nc2[n-]c(nc3nc([n-]c4nc(n1)-c1ccccc1-4)-c1ccccc1-3)c1ccccc21 [zinc phthalocyanine]
levels of ROS in vitro (normalized fluorescence) (ROS production [1]): comparable levels of ROS

Chlorin e6 [Ce6]
ROS production in Ce6 solution (ROS production [2]): significant ROS production
change in cell viability (MTS assay) (MB49 cells [3]; Ce6 + laser illumination obstructed by thick (3 cm) tissue, P=0.178): did not result in a significant difference in cell viability
change in cell viability (MTS assay) (MB49 cells [3]; Ce6 + laser illumination, direct): effective at reducing cell viability
cell kill (MTS assay) (MB49 cells [3]; Ce6 + wireless light delivery through thick (3 cm) tissue (mid-field), P=0.0039): ~80%
cell kill (MTS assay) (MB49 cells [3]; Ce6 + wireless light delivery, direct (near-field), P=0.0027): ~80%
apoptosis index (TUNEL assay) (MB49 cells [4]; Ce6 + laser, direct): high apoptosis
apoptosis index (TUNEL assay) (MB49 cells [4]; Ce6 + laser, through 3 cm tissue): low and comparable to the untreated control scenario
apoptosis index (TUNEL assay) (MB49 cells [4]; Ce6 + wireless device, direct (near-field)): high apoptosis
apoptosis index (TUNEL assay) (MB49 cells [4]; Ce6 + wireless device, through 3 cm tissue (mid-field)): high apoptosis
ROS-induced fluorescence signal (MB49 cells [5]; Ce6 + laser illumination, beam obstructed with thick tissue): insignificant ROS-induced fluorescence
ROS-induced fluorescence signal (MB49 cells [5]; Ce6 + laser illumination, direct irradiation): effective only under direct irradiation
ROS-induced fluorescence signal (MB49 cells [5]; Ce6 + wireless illumination, close proximity to radio-frequency source): increased signal
ROS-induced fluorescence signal (MB49 cells [5]; Ce6 + wireless illumination, through thick tissue): increased signal
ROS production (MB49 cells [5]; Ce6 exposure alone (no light)): did not result in significant ROS production
body weight over the treatment period ([6]; across all groups of mice incl. Ce6 + wireless light): did not show appreciable weight loss
tumor volume as a function of time ([6]; intratumoral Ce6, wireless light dose 1.3 mW 30 min 4 hours later, two treatments, monitored to 13 days after first treatment, vs control groups): suppression, and in some cases complete regression, of tumors
apoptotic cells in resected tumors (TUNEL staining) ([6]; treatment group (Ce6 + wireless light) compared to control groups): significantly greater population of apoptotic cells
apoptosis in explanted tumor tissues (TUNEL staining) [7, 9]: comparable apoptosis
damage in tissues adjacent to the tumor (TUNEL staining) [7, 9]: did not show significant damage
apoptosis in explanted tumor tissues (TUNEL staining) [7, 10]: comparable apoptosis
damage in tissues adjacent to the tumor (TUNEL staining) [7, 10]: did not show significant damage
ROS yield (ROS production [8]): ROS yield is higher
cell death (C6 rat glioma cells): about 80%
